Assay results taken from patent publication US7148246B2, “Cycloalkyl derivatives having bioisosteric carboxylic acid groups, processes for their preparation and their use as pharmaceuticals” (Sanofi-Aventis Deutschland GmbH, priority 2003, dated 2006).

Target: T1, human PPARalpha (Homo sapiens, UniProt Q07869)
T1 construct: amino acids S167–Y468; expressed in transfected cells; host or cells: HEK (human embryo kidney) cells, stably transfected with pcDNA3 carrying the fusion construct
T1 sequence (Q07869 167-468): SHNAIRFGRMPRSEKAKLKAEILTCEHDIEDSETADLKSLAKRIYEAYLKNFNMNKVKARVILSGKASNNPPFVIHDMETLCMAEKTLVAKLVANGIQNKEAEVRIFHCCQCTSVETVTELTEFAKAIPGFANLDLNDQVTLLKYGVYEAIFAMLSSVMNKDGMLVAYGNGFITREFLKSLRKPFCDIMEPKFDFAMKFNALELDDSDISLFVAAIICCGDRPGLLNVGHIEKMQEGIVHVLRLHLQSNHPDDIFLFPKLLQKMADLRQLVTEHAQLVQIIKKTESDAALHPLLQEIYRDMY
Assay: Cellular PPARalpha assay (stably transfected HEK luciferase reporter cell line)
Assay type: cell-based
Settings: PPARalpha reporter cell line (HEK, GR-GAL4-humanPPARalpha-LBD), luciferase readout
Method: Determination of EC50 Values of PPAR Agonists in the Cellular PPARalpha Assay
The potency of substances which bind to human PPARalpha and activate in an agonistic manner is analyzed using a stably transfected HEK cell line (HEK=human embryo kidney) which is referred to here as PPARalpha reporter cell line. It contains two genetic elements, a luciferase reporter element (pdeltaM-GAL4-Luc-Zeo) and a PPARalpha fusion protein (GR-GAL4-humanPPARalpha-LBD) which mediates expression of the luciferase reporter element depending on a PPARalpha ligand. The stably and constitutively expressed fusion protein GR-GAL4-humanPPARalpha-LBD binds in the cell nucleus of the PPARalpha reporter cell line via the GAL4 protein portion to the GAL4 DNA binding motifs 5′-upstream of the luciferase reporter element which is integrated in the genome of the cell line. There is only little expression of the luciferase reporter gene without addition of a PPARalpha ligand if fatty acid-depleted fetal calf serum (cs-FCS) is used in the assay. PPARalpha ligands bind and activate the PPARalpha fusion protein and thereby bring about expression of the luciferase reporter gene. The luciferase which is formed can be detected by means of chemiluminescence via an appropriate substrate.
The PPARalpha reporter cell line was prepared in 2 stages. Firstly, the luciferase reporter element was constructed and stably transfected into HEK cells. For this purpose, five binding sites of the yeast transcription factor GAL4 (each 5′-CGGAGTACTGTCCTCCGAG-3′) (SEQ ID No.1) were cloned in 5′-upstream of a 68 bp-long minimal MMTV promoter (Genbank Accession #V01175). The minimal MMTV promoter section contains a […] and a TATA element in order to enable efficient transcription by RNA polymerase II. The cloning and sequencing of the GAL4-MMTV construct took place in analogy to the description of Sambrook J. et. al. (Molecular cloning, Cold Spring Harbor Laboratory Press, 1989). Then the complete Photinus pyralis gene (Genbank Accession #M15077) was cloned in 3′-downstream of the GAL4-MMTV element. After sequencing, the luceriferase reporter element consisting of five GAL4 binding sites, MMTV promoter and luciferase gene was recloned into a plasmid which confers zeocin resistance in order to obtain the plasmid pdeltaM-GAL4-Luc-Zeo. This vector was transfected into HEK cells in accordance with the statements in Ausubel, F. M. et al. (Current protocols in molecular biology, Vol. 1–3, John Wiley & Sons, Inc., 1995). […] In a second step, the PPARalpha fusion protein (GR-GAL4-humanPPARalpha-LBD was introduced into the stable cell clone described. For this purpose, initially the cDNA coding for the N-terminal 76 amino acids of the glucocorticoid receptor (Genbank Accession #P04150) was linked to the cDNA section coding for amino acids 1–147 of the yeast transcription factor GAL4 (Genbank Accession #P04386). The cDNA of the ligand-binding domain of the human PPARalpha receptor (amino acids S167–Y468; Genbank Accession #S74349) was cloned in at the 3′-end of this GR-GAL4 construct. The fusion construct prepared in this way (GR-GAL4-humanPPARalpha-LBD) was recloned into the plasmid pcDNA3 (from Invitrogen) in order to enable constitutive expression therein by the cytomegalovirus promoter. This plasmid was linearized with a restriction endonuclease and stably transfected into the previously described cell clone containing the luciferase reporter element. The finished PPARalpha reporter cell line which contains a luciferase reporter element and constitutively expresses the PPARalpha fusion protein (GR-GAL4-human PPARalpha-LBD) was isolated by selection with zeocin (0.5 mg/ml) and G418 (0.5 mg/ml).
The activity of PPARalpha agonists is determined in a 3-day assay which is described below: […]

Row | EC50 | SMILES
1 | 91 nM | Cc1oc(-c2ccc(F)cc2)nc1CO[C@H]1CCC[C@@H](OCc2cccc([N+](=O)[O-])c2)C1 (relative stereo) [VIII, 2-(4-Fluorophenyl)-5-methyl4-[cis-3-(3-nitrobenzyloxy)cyclohexyloxy-methyl]oxazole]
2 | 1930 nM | Cc1oc(-c2ccc(F)cc2)nc1CO[C@@H]1CCC[C@H](OS(=O)(=O)c2cc([N+](=O)[O-])ccc2Cl)C1 (relative stereo) [Example XX, cis-3-[2-(4-fluorophenyl)-5-methyloxazol-4-ylmethoxy]cyclohexyl 2-chloro-5-nitrobenzenesulfonate]
3 | 1250 nM | COc1ccc(S(=O)(=O)O[C@H]2CCC[C@@H](OCc3nc(-c4ccc(F)cc4)oc3C)C2)c([N+](=O)[O-])c1 (relative stereo) [Example XXI, cis-3-[2-(4-fluorophenyl)-5-methyloxazol-4-ylmethoxy]cyclohexyl 4-methoxy-2-nitrobenzenesulfonate]

Second part, the compound before the results:

Row | SMILES | EC50
4 | Cc1cccc(-c2nc(COC3CCCC(OCCC4SC(=O)NC4=O)C3)c(C)o2)c1 (stereo not drawn) [Example XXVII, 5-{2-[(cis-3-(5-Methyl-2-tolyloxazol-4-ylmethoxy)cyclohexyloxy]ethyl}thiazolidine-2,4-dione] | 726 nM
5 | Cc1oc(-c2ccc(F)cc2)nc1CO[C@@H]1CCC[C@H](OCCC2SC(=O)NC2=O)C1 (relative stereo) [Example XXVI, 5-(2-{cis-3-[2-(4-Fluorophenyl)-5-methyloxazol-4-ylmethoxy]cyclohexyloxy}-ethyl)thiazolidine-2,4-dione] | 709 nM
6 | Cc1oc(-c2ccc(F)cc2)nc1COC1CCCC(OC/C=C2\NC(=O)NC2=O)C1 (racemic) [XXIV, 5-[2-{cis-3-[2-(4-Fluorophenyl)-5-methyloxazol-4-ylmethoxy]cyclohexyloxy}-ethylidene]imidazolidine-2,4-dione] | 227 nM
7 | Cc1ccc(-c2nc(CO[C@@H]3CCC[C@H](/C=C4/SC(=O)NC4=O)C3)c(C)o2)cc1 (racemic) [Example XXXIV, 5-[1-[cis-3-(5-Methyl-2-tolyloxazol-4-ylmethoxy)cyclohexyl]methylidene]-thiazolidine-2,4-dione] | 114 nM
8 | Cc1ccc(-c2nc(COC3CCCC(CC4SC(=O)NC4=O)C3)c(C)o2)cc1 (stereo not drawn) [XXXV, 5-[cis-3-(5-Methyl-2-tolyloxazol-4-ylmethoxy)cyclohexylmethyl]thiazolidine-2,4-dione] | 187 nM
